Legend:
[1] = Form C screening experiments; format: physicochemical; details: Exp. 16: 40 mg in water 0.1 mL, RT; CL → HSL
[2] = Slurry and solvent evaporation polymorph experiments of Compound A citrate salt (Table 9); format: physicochemical
Procedure: Based on the approximate solubility data of Compound A citrate salt, 18 polymorph experiments were started at RT with stirring (Table 9). Wet cakes from the slurry experiments were analyzed after 5 days of stirring. Wet cake XRPD patterns were checked and materials showing no pattern change were heated from RT to 50° C.
Procedure • 1) Slurry at RT: ˜35 mg citrate salt was slurried in different solvents in 4 mL vials using a magnetic stirrer at RT. The solids in slurry were characterized by XRPD after 3-5 days. • 2) Slurry at 50° C.: Slurries with no change in wet cake XRPD pattern when compared to starting material were heated from RT to 50° C. Samples were analyzed after 2-3 days of stirring.
Wet cake samples were isolated and kept at 25° C. for 2 h for drying. After drying, samples were analyzed by XRPD.

[3] = Form C water activity study in MeCN/water; format: physicochemical
Procedure: Water activity study in MeCN/water: A water activity investigation was conducted utilizing a MeCN/water system. […] Subsequently, Form A seeds were introduced into vials with water activities between 0.01 and 0.6. […] The solids were isolated and subjected to vacuum drying at room temperature overnight.

[4] = Form C characterization and relative stability of the forms; format: physicochemical
Excerpt: Moreover, HNMR studies validated a 1:1 stoichiometry between the freebase and acid.

[5] = Form C slurry conditioning in EtOH/water (95/5); format: physicochemical
[6] = Polymorph screening of Compound A citrate salt, form conversion (XRPD, DSC/TGA, DVS); format: physicochemical; details: drying of wet cake (Form B); presence of water (Form C)
[7] = Dynamic vapor sorption (DVS) at 25° C. and RH up to 90%; format: physicochemical
Procedure: FIG. 4 depicts a DVS of Compound A monocitrate monohydrate Form A salt at 25° C. and RH up to 90%.

[8] = Plasma pharmacokinetics of compound A after twice daily dosing; format: in vivo
[9] = about 163 mg twice daily in combination with a CYP3A4 inhibitor (e.g., a strong CYP3A4 inhibitor)

With `CCN(C(=O)c1cc(F)ccc1Oc1cncnc1N1CC2(CCN(CC3CCC(NS(=O)(=O)CC)CC3)CC2)C1)C(C)C.O=C(O)CC(O)(CC(=O)O)C(=O)O` (stereo not shown) [Form C] the “Crystal Form” value [1] was “Form A”, the Form conversion ([2]; dried solid, upon exposure to humidity) was “converts to Form A upon exposure to humidity” and the XRPD ([3]; Exp. 1: Form C 40 mg, MeCN/water aw 0.01, RT, no Form A seed) was “Form C”. The XRPD ([3]; Exp. 1a: MeCN/water aw 0.01, RT, Form A seed 20 mg added) was “Form C”, the XRPD ([3]; Exp. 2: Form C 40 mg, MeCN/water aw 0.22, RT, no Form A seed) was “Form C” and the XRPD ([3]; Exp. 2a: MeCN/water aw 0.22, RT, Form A seed 20 mg added) was “Form C”. For the same molecule, the XRPD ([3]; Exp. 3: Form C 40 mg, MeCN/water aw 0.41, RT, no Form A seed) was “Form C”, the XRPD ([3]; Exp. 3a: MeCN/water aw 0.41, RT, Form A seed 20 mg added) was “Form C” and the XRPD ([3]; Exp. 4: Form C 40 mg, MeCN/water aw 0.59, RT, no Form A seed) was “Form C”. The XRPD ([3]; Exp. 4a: MeCN/water aw 0.59, RT, Form A seed 20 mg added) was “Form C”, the “Form (XRPD) after addition of Form A seeds” value ([3]; MeCN/water, water activities 0.01 to 0.6, overnight stirring) was “match with the Form C” and the “Form stability (XRPD of wet cake)” value ([3]; MeCN/water, water activities 0.01 to 0.8, RT, overnight stirring) was “remained stable”. The “Form (XRPD) of isolated vacuum-dried solids” value ([3]; water activity levels of 0.01-0.6) was “consistent with Form C”, the “Form (XRPD) of isolated vacuum-dried solids” value ([3]; water activity of 0.8) was “combination of Form C and Form A” and the “XRPD profile after heating” value ([4]; heating to 110° C.) was “aligned with that of Form C”. For the same molecule, the “Solid recovered from water” value ([4]; overnight stirring in water at RT) was “Form A was recrystallized”, the “XRPD pattern after drying” value ([4]; post-vacuum drying at room temperature) was “remained unchanged” and the Form conversion ([4]; water and EtOH/water (95/5 v/v)) was “transitions to Form A”. For the same molecule, the “Form conversion on slurry conditioning” value ([5]; EtOH/water (95/5), overnight stirring) was “converted to Form A”, the XRPD ([5]; Exp. 1: Form C 40 mg, EtOH/water (95/5) 0.2, RT, no Form A seed, slurry overnight) was “Form A” and the XRPD ([5]; Exp. 2: Form C, EtOH/water (95/5), RT, Form A seed 20 mg) was “Form A”. For the same molecule, the “stability of polymorphic form / conversion” value [6] was “unstable and converts to Form A in presence of water”.
In the case of `CCN(C(=O)c1cc(F)ccc1Oc1cncnc1N1CC2(CCN(C[C@H]3CC[C@H](NS(=O)(=O)CC)CC3)CC2)C1)C(C)C.O.O=C(O)CC(O)(CC(=O)O)C(=O)O`, the Form ([2]; 1,4-dioxane/H2O (7:3), solvent evaporation) is reported as “Form A (FIG. 19)”, the Form ([2]; Propanol/H2O (7:3), solvent evaporation) is reported as “Form A (FIG. 19)” and the Form ([2]; THF/H2O (7:3), solvent evaporation) is reported as “Amorphous (FIG. 19)”. For the same molecule, the Form ([2]; slurry, 1,4-dioxane/H2O (7:3)) was “Form A (FIG. 18)”, the Form ([2]; slurry, 2-Me-THF, starting material a 1:1 mixture (footnote)) was “Form A (FIG. 18)” and the Form ([2]; slurry, Acetone/H2O (7:3)) was “Form A (FIG. 18)”. The Form ([2]; slurry, DCM) was “Form A (FIG. 17)”, the Form ([2]; slurry, EtOAc) was “Form A (FIG. 17)” and the Form ([2]; slurry, H2O) was “Form A (FIG. 18)”. The Form ([2]; slurry, IPAc) was “Form A (FIG. 18)”, the Form ([2]; slurry, MEK) was “Form A (FIG. 17)” and the Form ([2]; slurry, MTBE) was “Form A (FIG. 18)”. For the same molecule, the Form ([2]; slurry, MeCN) was “Form C (FIG. 14)”, the Form ([2]; slurry, MeOH or EtOH, after air dry) was “dry→Form A (FIG. 16)” and the Form ([2]; slurry, MeOH or EtOH, wet cake) was “Form B (Wet cake)→ air”. The Form ([2]; slurry, Propanol/H2O (7:3)) was “Form A (FIG. 18)”, the Form ([2]; slurry, THF) was “Form A (FIG. 17)” and the Form ([2]; slurry, Toluene) was “Form A (FIG. 17)”. The “water absorbed (DVS)” value ([7]; 25° C., from 0% to 90% relative humidity) was “about 1.9%”, the hygroscopicity ([7]; DVS at 25° C. and RH up to 90%) was “not hygroscopic” and the “area under plasma concentration versus time curve from time 0 to 12 hours (AUC(0-12h)) of compound A” value [8, 9] was “about 22610 ng·h/mL”. The “maximum plasma concentration (Cmax) of compound A” value [8, 9] was “about 3220 ng/mL”, the “area under plasma concentration versus time curve from time 0 to 12 hours (AUC(0-12h)) of compound A” value ([8]; about 276 mg twice daily) was “about 10150 ng·h/mL” and the “maximum plasma concentration (Cmax) of compound A” value ([8]; about 276 mg twice daily) was “about 2052 ng/mL”.
